One may read the Km as the substrate concentration at which the rate is half of its maximum.

In paper PMC6213006, “Directed Evolution of a Homodimeric Laccase from Cerrena unicolor BBP6 by Random Mutagenesis and In Vivo Assembly” (International Journal of Molecular Sciences, 2018) one finds Km data, which are given here for one molecule.

Holding throughout (test): ABTS oxidation at […] nm, Lineweaver-Burk, crude culture supernatant
Common to all, as to format: biochemical, Cerrena unicolor

In assay [1] the test system is LacA (parent-type αLacA, recombinant). As to conditions: 100 mM acetate pH 4.0, 30 °C, 10–1000 µM ABTS, air O2; IVA205.
Assay [2] shares this test system. As to conditions: 100 mM acetate pH 4.0, 30 °C, 10–1000 µM ABTS, air O2; RM464.
Assay [3] shares this test system. As to conditions: 100 mM acetate pH 4.0, 30 °C, 10–1000 µM ABTS, air O2; RM811.
For assay [4] the test system is unchanged. As to conditions: 100 mM acetate pH 4.0, 30 °C, 10–1000 µM ABTS, air O2; RM243.
Assay [5] has the same test system. As to conditions: 100 mM acetate pH 4.0, 30 °C, 10–1000 µM ABTS, air O2; IVA264.
For assay [6] the test system is unchanged. As to conditions: 100 mM acetate pH 4.0, 30 °C, 10–1000 µM ABTS, air O2; IVA189.
Assay [7] shares this test system. As to conditions: 100 mM acetate pH 4.0, 30 °C, 10–1000 µM ABTS, air O2.
Assay [8] shares this test system. As to conditions: 100 mM acetate pH 4.0, 30 °C, 10–1000 µM ABTS, air O2; RM1524.
The test system is the same in assay [9]. As to conditions: 100 mM acetate pH 4.0, 30 °C, 10–1000 µM ABTS, air O2; RM1925.
The test system is the same in assay [10]. As to conditions: 100 mM acetate pH 4.0, 30 °C, 10–1000 µM ABTS, air O2; RM1905.
The test system is the same in assay [11]. As to conditions: 100 mM acetate pH 4.0, 30 °C, 10–1000 µM ABTS, air O2; RM1307, expressed with leader mutations αN23I/αA75T.

For the molecule `CCn1c(=NN=c2sc3cc(S(=O)(=O)O)ccc3n2CC)sc2cc(S(=O)(=O)O)ccc21` [2,2′-azino-bis(3-ethylbenzothiazoline-6-sulfonic acid)], the Km is 85.3 ± 0.3 µM in assay [1]; 90.2 ± 3.4 µM in assay [2]; 168 µM in [3]; 64.8 ± 1.4 µM in assay [4]; 64 ± 2.5 µM in assay [5]; 69.8 ± 3.6 µM in assay [6]. The Km was 206 ± 11.6 µM in [7]; 59.8 ± 2.2 µM in [8]; 79.8 ± 12.7 µM in [9]; 147 ± 14.6 µM in assay [10]; 67.5 ± 1.7 µM in [11].
